Literature values in US8278324B2, “Oxadiazole derivatives active on sphingosine-1-phosphate (S1P)” (Glaxo Group Limited, priority 2007, dated 2012).

How the values were obtained:
[1] = clinical studies, first 24 hours of treatment
circulating lymphocytes = conditions: animals and man

CCCCCCCCc1ccc(CCC(N)(CO)CO)cc1 [FTY720]
bradycardia [1]: results in bradycardia
effect on circulating lymphocytes (circulating lymphocytes): reduce circulating lymphocytes
